Source: US11427561B2, “IRAK4 inhibiting agents” (BIOGEN MA INC., priority 2016, dated 2022)

Test system: A549 cells
Test: Cell-based assay: IL-6 ELISA quantification in A549 cells stimulated with human IL-1beta
Conditions: A549 cells, 2 ng/ml human IL-1beta overnight
Protocol: Cell-based Assay: The cell-based assays is based on IL-6 ELISA quantification. Briefly, A549 cells are cultured in DMEM with 10% FBS medium. When cells reach 80% confluence they are trypsin treated and seeded 180 ul/well in 96-well plate at 2.5×10^4 cells/well. Then, 20 ul of compound serial dilutions (starting at 10 uM, 10 points) are added to the cell plate; incubate for 30 min at 37 C and stimulated with 2 ng/ml human IL-1beta 37 C, 5% CO2 overnight. The next day 100 ul of cell supernatant per well are analyzed on a Human IL-6 Quantikine ELISA kit from R&D Systems.
The compounds described herein were tested for in the above biochemical and cell-based assays.

| EC50 | SMILES |
| --- | --- |
| 1000 to 10000 nM | NC(c1cccc(-c2ccc3cnn(-c4cccc(CO)n4)c3c2)n1)C1CCC(O)C1 (single isomer, unassigned) [Compound 22, 3-(amino(6-(1-(6-(hydroxymethyl)pyridin-2-yl)-1H-indazol-6-yl)pyridin-2-yl)methyl)cyclopentanol-B] |
| ≤ 1000 nM | N[C@H](c1cccc(-c2ccc3cnn(-c4cccc(CO)n4)c3c2)n1)C1CC(CO)C1 (stereo partly drawn) [Compound 3, (S)-(6-(6-(6-(amino(3-(hydroxymethyl)cyclobutyl)methyl)pyridin-2-yl)-1H-indazol-1-yl)pyridin-2-yl)methanol] |

Same assay, conditions: Homo sapiens, A549, A549 cells, 2 ng/ml human IL-1beta overnight

| EC50 | SMILES |
| --- | --- |
| ≤ 1000 nM | NC(c1cccc(-c2ccc3cnn(-c4cccc(CO)n4)c3c2)n1)C1CCC(O)C1 (single isomer, unassigned) [Compound 21, 3-(amino(6-(1-(6-(hydroxymethyl)pyridin-2-yl)-1H-indazol-6-yl)pyridin-2-yl)methyl)cyclopentanol-A] |
| 1000 to 10000 nM | N[C@H](c1cccc(-c2ccc3cnn(-c4cccc(CO)n4)c3c2)n1)C1(F)CCC1 [Compound 35c, (R)-(6-(6-(6-(amino(1-fluorocyclobutyl)methyl)pyridin-2-yl)-1H-indazol-1-yl)pyridin-2-yl) methanol] |
| ≤ 1000 nM | N[C@@H](c1cccc(-c2ccc3cnn(-c4cccc(CO)n4)c3c2)n1)C1(F)CCC1 [Compound 35d, (S)-(6-(6-(6-(amino(1-fluorocyclobutyl)methyl)pyridin-2-yl)-1H-indazol-1-yl)pyridin-2-yl) methanol] |
| ≤ 1000 nM | CO[C@H]1C[C@H]([C@H](N)c2cccc(-c3ccc4cnn(-c5cccc(C(F)F)n5)c4c3)n2)C1 [Compound 35j, (S)-(6-(1-(6-(difluoromethyl)pyridin-2-yl)-1H-indazol-6-yl)pyridin-2-yl)((1R,3S)-3-methoxycyclobutyl)methanamine] |
| 1000 to 10000 nM | CC1([C@H](N)c2cccc(-c3ccc4cnn(-c5cccc(CF)n5)c4c3)n2)CCC1 [Compound 35k, (S)-(6-(1-(6-(fluoromethyl)pyridin-2-yl)-1H-indazol-6-yl)pyridin-2-yl)(1-methylcyclobutyl)methanamine] |
| ≤ 1000 nM | N#CC1CC([C@H](N)c2cccc(-c3ccc4cnn(-c5cccc(CF)n5)c4c3)n2)C1 (stereo partly drawn) [Compound 35l, (S)-3-(amino(6-(1-(6-(fluoromethyl)pyridin-2-yl)-1H-indazol-6-yl)pyridin-2-yl)methyl)cyclo butane-1-carbonitrile] |

Target: IRAK4 (Homo sapiens (Human), UniProt Q9NWZ3)
Test: IRAK-4 biochemical assay, AlphaScreen format (phosphorylation of a biotin labeled peptide)
Conditions: 1 nM IRAK4, 1.6 μM peptide, 1 mM ATP, 3.5 h at RT
Protocol: Biochemical Assay: The biochemical assay is in a AlphaScreen format. The kinase reaction is based on the IRAK-4 phosphorylation of a biotin labeled peptide. The phosphopeptide is incubated with anti-phosphothreonine antibody as well as streptavidin- and protein A-coated beads. Binding of the protein-A coated beads to the antibody and the streptavidin beads to the peptide, leads to an energy transfer from one bead to the other, ultimately producing a luminescent/fluorescent signal.
Generally, the kinase reaction is carried out at 1 nM IRAK4, 1.6 μM peptide, 1 mM ATP in reaction buffer 50 mM Hepes, 60 mM NaCl, 5 mM MgCl2, 0.25 mM MnCl2, 2 mM DTT, 0.01% BSA, 0.01% Tween-20) for 3.5 h at RT.
The compounds described herein were tested for in the above biochemical assay.

Chain of IRAK4 (Q9NWZ3 whole entry, species assumed): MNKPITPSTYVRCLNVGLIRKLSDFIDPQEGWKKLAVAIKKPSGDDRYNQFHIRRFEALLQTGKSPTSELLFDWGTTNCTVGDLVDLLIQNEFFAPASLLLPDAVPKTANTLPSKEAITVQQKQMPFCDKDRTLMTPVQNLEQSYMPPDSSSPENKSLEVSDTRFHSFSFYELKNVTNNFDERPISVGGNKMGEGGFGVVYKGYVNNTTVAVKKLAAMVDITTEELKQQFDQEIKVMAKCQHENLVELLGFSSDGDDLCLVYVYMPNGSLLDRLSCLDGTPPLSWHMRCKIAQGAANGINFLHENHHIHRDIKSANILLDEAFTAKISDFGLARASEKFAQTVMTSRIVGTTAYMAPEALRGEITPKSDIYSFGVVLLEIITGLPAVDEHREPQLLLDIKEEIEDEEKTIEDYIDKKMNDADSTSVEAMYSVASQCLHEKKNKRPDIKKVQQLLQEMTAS

| IC50 | SMILES |
| --- | --- |
| ≤ 100 nM | NC(c1cccc(-c2ccc3cnn(-c4cccc(CO)n4)c3c2)n1)C1CCC(O)C1 (single isomer, unassigned) [Compound 21, 3-(amino(6-(1-(6-(hydroxymethyl)pyridin-2-yl)-1H-indazol-6-yl)pyridin-2-yl)methyl)cyclopentanol-A] |
| ≤ 100 nM | NC(c1cccc(-c2ccc3cnn(-c4cccc(CO)n4)c3c2)n1)C1CCC(O)C1 (single isomer, unassigned) [Compound 22, 3-(amino(6-(1-(6-(hydroxymethyl)pyridin-2-yl)-1H-indazol-6-yl)pyridin-2-yl)methyl)cyclopentanol-B] |
| 100 to 1000 nM | N[C@H](c1cncc(-c2ccc3cnn(-c4cccc(CF)n4)c3c2)n1)[C@H]1C[C@@H](O)C1 [Compound 18, cis-3-((S)-amino(6-(1-(6-(fluoromethyl)pyridin-2-yl)-1H-indazol-6-yl)pyrazin-2-yl)methyl)cyclobutanol] |
| ≤ 100 nM | N[C@H](c1cncc(-c2ccc3cnn(-c4cccc(C(F)(F)F)n4)c3c2)n1)[C@H]1C[C@@H](O)C1 [Compound 19, cis-3-((S)-amino(6-(1-(6-(trifluoromethyl)pyridin-2-yl)-1H-indazol-6-yl)pyrazin-2-yl)methyl)cyclobutanol] |
| ≤ 100 nM | N#CC1(c2cccc(-n3ncc4ccc(-c5cccc([C@@H](N)[C@H]6C[C@@H](O)C6)n5)cc43)n2)CC1 [Compound 20, 1-(6-(6-(6-((S)-amino(cis-3-hydroxycyclobutyl)methyl)pyridin-2-yl)-1H-indazol-1-yl)pyridin-2-yl)cyclopropanecarbonitrile] |
| ≤ 100 nM | N[C@@H](c1cccc(-c2ccc3cnn(-c4cccc(CO)n4)c3c2)n1)C1(F)CCC1 [Compound 31, (S)-(6-(6-(6-(amino(1-fluorocyclobutyl)methyl)pyridin-2-yl)-1H-indazol-1-yl)pyridin-2-yl)methanol] |
| ≤ 100 nM | N[C@H](c1cccc(-c2ccc3cnn(-c4cccc(CO)n4)c3c2)n1)C1(F)CCC1 [Compound 32, (R)-(6-(6-(6-(amino(1-fluorocyclobutyl)methyl)pyridin-2-yl)-1H-indazol-1-yl)pyridin-2-yl)methanol] |
